In the supplement of paper PMC10307832:

How the values were obtained:
Experiment in all cases: relative viability (nuclei count vs DMSO), 5 days (fraction); higher = more cells survive
[1] = compound: CC1=CC=C(C=C1)C(=O)CN2C3=C(CCCC3)SC2=N [Pifithrin_alpha] + CC(C)C[C@H](NC(=O)[C@H](Cc1ccccc1)NC(=O)c1cnccn1)B(O)O [Bortezomib] (partner 0.002 µM)
How it was run: (§1)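 Lung cancer cell lines, seeded in 1536-well plates, were treated the following day by pin tool with a single drug or with five library-drug doses (not always all listed) in √10 steps on top of a fixed anchor-drug dose. Cells were fixed and nuclei stained in one step after 5 days, and nuclei were counted. Relative viability is the nuclei count for treated wells divided by that for vehicle wells, reported as medians of duplicate plates.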

[2] = compound: CC1=CC=C(C=C1)C(=O)CN2C3=C(CCCC3)SC2=N [Pifithrin_alpha] + Cc1cc(Nc2cc(N3CCN(C)CC3)nc(Sc3ccc(NC(=O)C4CC4)cc3)n2)n[nH]1 [Tozasertib] (partner 0.1 µM)
How it was run: as §1

[3] = compound: CNC(=O)c1ccccc1Sc1ccc2c(/C=C/c3ccccn3)n[nH]c2c1 [Axitinib] + N=C(N)NC(=N)NCCc1ccccc1 [Phenformin] (partner 250 µM)
How it was run: as §1

[4] = compound: CNC(=O)c1ccccc1Sc1ccc2c(/C=C/c3ccccn3)n[nH]c2c1 [Axitinib] + Nc1ncn([C@H]2C[C@H](O)[C@@H](CO)O2)c(=O)n1 [Decitabine] (partner 2 µM)
How it was run: as §1

Row | Cell Line | relative viability ([1]; first compound 1 µM) | relative viability ([1]; first compound 3.162 µM) | relative viability ([1]; first compound 10 µM) | relative viability ([1]; first compound 31.62 µM) | relative viability ([1]; first compound 100 µM) | relative viability ([2]; first compound 1 µM) | relative viability ([2]; first compound 3.162 µM) | relative viability ([2]; first compound 10 µM) | relative viability ([2]; first compound 31.62 µM) | relative viability ([2]; first compound 100 µM) | relative viability ([3]; first compound 0.005 µM) | relative viability ([3]; first compound 0.01581 µM) | relative viability ([3]; first compound 0.05 µM) | relative viability ([3]; first compound 0.1581 µM) | relative viability ([3]; first compound 0.5 µM) | relative viability ([4]; first compound 0.005 µM) | relative viability ([4]; first compound 0.01581 µM) | relative viability ([4]; first compound 0.05 µM) | relative viability ([4]; first compound 0.1581 µM) | relative viability ([4]; first compound 0.5 µM)
1 | A-427 | 0.953 | 0.957 | 0.916 | 0.722 | 0.928 | 0.202 | 0.18 | 0.183 | 0.203 | 0.2 | 0.356 | 0.29 | 0.416 | 0.323 | 0.289 | 0.58 | 0.602 | 0.553 | 0.57 | 0.589
2 | ABC-1 | 0.322 | 0.351 | 0.328 | 0.26 | 0.298 | 0.204 | 0.167 | 0.188 | 0.229 | 0.173 | 0.268 | 0.239 | 0.222 | 0.21 | 0.241 | 1.35 | – | 0.866 | 0.964 | 1.01
3 | BEN | 0.47 | 0.884 | 0.914 | 0.728 | 1.04 | – | 0.684 | 0.534 | 0.443 | 0.514 | 0.268 | 0.29 | 0.246 | 0.236 | 0.262 | 0.795 | 0.758 | 0.771 | 0.782 | 0.635
4 | COR-L23 | 1.01 | 0.928 | 0.973 | – | 0.908 | 0.168 | 0.15 | 0.152 | – | 0.13 | 0.458 | 0.417 | 0.428 | 0.419 | 0.485 | 0.504 | 0.454 | 0.419 | 0.511 | 0.397
5 | COR-L 105 | 0.725 | 0.615 | 0.856 | 0.629 | 0.632 | 0.346 | 0.358 | 0.368 | 0.31 | 0.316 | 0.605 | 0.4 | 0.527 | 0.388 | 0.547 | 0.727 | 0.557 | 0.726 | 0.727 | 0.683
6 | ChaGo-K-1 | 0.962 | 1.21 | 0.944 | 0.711 | 0.986 | 0.218 | 0.219 | 0.204 | 0.226 | 0.192 | 0.467 | 0.428 | 0.506 | 0.437 | 0.469 | 0.557 | 0.527 | 0.506 | 0.52 | 0.495
7 | EKVX | 1.07 | 0.94 | 0.768 | 0.607 | 0.648 | 0.532 | – | 0.349 | 0.245 | 0.349 | 0.243 | 0.222 | 0.214 | 0.233 | 0.216 | 0.366 | 0.315 | 0.344 | 0.334 | 0.396
8 | EMC-BAC-2 | 1.07 | 1.09 | 0.99 | 0.8 | 1.15 | 0.272 | 0.288 | 0.283 | – | 0.248 | 0.552 | 0.535 | 0.483 | 0.547 | 0.57 | 1.03 | 0.966 | 0.971 | 0.965 | 0.945
9 | EPLC-272H | – | 0.944 | 0.895 | 0.627 | 1.11 | 0.255 | 0.13 | 0.169 | 0.202 | 0.292 | 0.324 | 0.326 | 0.341 | 0.279 | 0.304 | 0.411 | 0.345 | 0.338 | 0.351 | 0.377
10 | H3255 | 0.584 | 0.76 | 0.711 | 0.416 | 0.421 | 0.642 | 0.896 | 0.574 | 0.572 | 0.708 | 0.368 | 0.236 | 0.335 | 0.358 | 0.377 | 0.736 | – | 0.559 | 0.508 | 0.535
11 | HARA | 1.25 | 1.13 | 1.2 | 0.878 | 1.26 | – | 0.107 | 0.117 | – | 0.0634 | 0.421 | 0.412 | 0.493 | 0.392 | 0.488 | 0.575 | 0.396 | 0.484 | 0.548 | 0.581
12 | HCC-15 | 1.1 | 1.11 | 0.919 | 0.772 | 1.1 | 0.463 | 0.544 | 0.245 | 0.212 | 0.165 | 0.469 | 0.458 | 0.51 | 0.472 | 0.464 | 0.637 | 0.635 | 0.681 | 0.615 | 0.603
13 | HCC-44 | 0.916 | 0.851 | 0.793 | 0.68 | 0.652 | 0.748 | 1.07 | 0.685 | 0.461 | 0.452 | 0.165 | 0.27 | 0.211 | 0.198 | 0.176 | 0.974 | 0.919 | 0.937 | 0.956 | 0.872
14 | HCC-78 | 0.415 | 0.394 | 0.472 | 0.418 | 0.477 | 0.56 | 0.543 | 0.423 | 0.35 | 0.404 | 0.67 | 0.667 | 0.752 | 0.657 | 0.474 | 0.69 | 0.577 | 0.806 | 0.698 | 0.653
15 | HCC-366 | 1.33 | 0.706 | 1.07 | – | 1.1 | 0.0661 | 0.0593 | 0.0876 | – | 0.0623 | 0.689 | 0.615 | 0.631 | 0.553 | 0.653 | 0.361 | 0.356 | 0.393 | 0.323 | 0.423
16 | HCC-827 | 0.961 | 1.14 | 0.987 | 0.903 | 0.981 | 0.422 | 0.522 | 0.381 | 0.337 | 0.353 | 0.408 | 0.4 | 0.419 | 0.381 | 0.459 | 0.321 | 0.216 | 0.358 | 0.32 | 0.333
17 | HOP-62 | 0.92 | 0.983 | 0.955 | 0.514 | 1.14 | 0.385 | 0.584 | 0.355 | 0.358 | 0.344 | 0.73 | 0.63 | 0.742 | 0.665 | 0.853 | 0.212 | 0.247 | 0.202 | 0.19 | 0.276
